# Test results from patent publication US20230203081A1, “LINCOSAMIDE ANTIBIOTICS AND USES THEREOF” (President and Fellows of Harvard College, priority 2020, published 2023).
# Tests used:
# Format in all cases: cell-based
# [1] = tested on: broad panel of different clinical isolates; experiment: microbe, parasite or virus in culture
# Procedure, shortened: (§1)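 Isolates other than streptococci and anaerobes, which had their own procedures, were grown overnight at 35° C on tryptic soy agar with 5% sheep blood. Suspensions were then diluted to a final inoculum of 5×10^5 CFU/mL in broth microdilution wells.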
# E. faecium Line R & VRE = experiment: MIC (broth microdilution or agar dilution, CLSI); settings: Enterococcus faecium, E. faecium HAV#319, Line R & Vanco R, read-out: MIC
# Procedure, shortened: (§2)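 CLSI MIC, broth microdilution or agar dilution; compound 128-0.06 μg/mL, 2.5% DMSO final; triplicate. Anaerobes (e.g. clostridia) and streptococci run by specialized procedures. Other strains: overnight 35° C on blood agar, CaMHB, 0.5 McFarland, inoculum 5×10^5 CFU/mL.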
# A. baumannii ATCC 19606 = experiment: MIC (broth microdilution or agar dilution, CLSI); settings: Acinetobacter baumannii, ATCC19606; A. baumanii HAV#010, ATCC 19606; read-out: MIC
# Procedure, shortened: as §1
# P. aeruginosa ATCC 27853 = experiment: MIC (broth microdilution or agar dilution, CLSI); settings: Pseudomonas aeruginosa, ATCC27853; P. aeruginosa HAV#009, ATCC 27853; read-out: MIC
# Procedure, shortened: as §2
# P. aeruginosa ΔAmex OprM = experiment: MIC (broth microdilution or agar dilution, CLSI); settings: Pseudomonas aeruginosa
# Procedure, shortened: as §2
# [2] = Enterococcus faecalis, E. faecalis HAV#602, Clincal
# [3] = Enterococcus faecalis, E. faecalis HAV#607, Clinical
# [4] = Enterococcus faecalis, E. faecalis HAV#608, Clinical
# [5] = Enterococcus faecalis, E. faecalis HAV#609, Clinical
# [6] = Enterococcus faecalis, E. faecalis HAV#610, Clinical
# [7] = Enterococcus faecalis, S. faecalis 5060, Line R & Vanco R
# [8] = Enterococcus faecalis, S. faecalis 5074, Line R
# [9] = Enterococcus faecalis, VRE, E. faecalis HAV#251, Clinical VRE
# [10] = Enterococcus faecalis, VRE, E. faecalis HAV#606, Clinical
# [11] = Enterococcus faecium, E. faecium HAV#317, Clinical
# [12] = Enterococcus faecium, E. faecium HAV#324, Clinical
# [13] = Enterococcus faecium, E. faecium HAV#327, Clinical
# [14] = Enterococcus faecium, E. faecium HAV#328, Clinical
# [15] = Enterococcus faecium, E. faecium HAV#329, Clinical
# [16] = Enterococcus faecium, VRE, E. faecium HAV#320, Clinical
# [17] = Escherichia coli, E. coli HAV#501, Clinical
# [18] = Escherichia coli, E. coli HAV#503, Clinical
# [19] = Escherichia coli, E. coli HAV#511, Clinical
# [20] = Escherichia coli, E. coli HAV#512, Clinical
# [21] = Escherichia coli, E. coli HAV#513, Clinical
# [22] = Escherichia coli, E. coli HAV#514, Clinical
# [23] = Escherichia coli, E. coli HAV#516, ESBL-producing
# [24] = Haemophilus influenzae, ATCC9007, H. influenzae HAV#376, ATCC-9007
# [25] = Klebsiella pneumoniae, K. pneumoniae HAV#041, Clinical, KPC
# [26] = Klebsiella pneumoniae, K. pneumoniae HAV#404, Clinical
# [27] = Klebsiella pneumoniae, K. pneumoniae HAV#405, Clinical
# [28] = Staphylococcus aureus, MRSA, S. aureus HAV#218, Line R
# [29] = Staphylococcus aureus, MRSA, S. aureus HAV#220, Line R
# [30] = Staphylococcus aureus, MSSA, S. aureus HAV#219, Line R
# [31] = Staphylococcus aureus, S. aureus HAV#051, mecA, norA, spcl, ermA, aad1, aac6′-aph2″
# [32] = Staphylococcus aureus, S. aureus HAV#052, mecA, norA, fosB, blaZ
# [33] = Staphylococcus aureus, S. aureus HAV#053 mecA, norA, fosB
# [34] = Staphylococcus aureus, S. aureus HAV#054, mecA, norA, spcl, aad1, fosB, ermA, aac6′-aph2″, blaZ
# [35] = Staphylococcus aureus, S. aureus HAV#212, Clinical
# [36] = Staphylococcus aureus, S. aureus HAV#213, Clinical
# [37] = Staphylococcus aureus, S. aureus HAV#214, Clinical
# [38] = Staphylococcus aureus, S. aureus HAV#215, Clinical
# [39] = Staphylococcus aureus, S. aureus HAV#217, cfr
# [40] = Staphylococcus aureus, VISA, S. aureus HAV#203, Clinical (VISA)
# [41] = Staphylococcus epidermidis, S. epidermidis HAV# 275 Clinical, cfr
# [42] = Staphylococcus epidermidis, S. epidermidis HAV# 276, cfr
# [43] = Staphylococcus epidermidis, S. epidermidis HAV#277, Line R
# [44] = Staphylococcus epidermidis, S. epidermidis HAV#278 Line R
# [45] = Staphylococcus epidermidis, S. epidermidis HAV#279, Line R
# [46] = Staphylococcus haemolyticus, S. haemolyticus 5052, Line R & Methicillin R
# [47] = Streptococcus pneumoniae, ATCC700673, S. pneumoniae HAV#352, ATCC 700673, MDR
# [48] = Streptococcus pneumoniae, ATCCBAA255, S. pneumoniae HAV#354, ATCC-BAA-255
# [49] = Streptococcus pneumoniae, ATCCBAA334, S. pneumoniae HAV#353, ATCC-BAA-334
# [50] = Streptococcus pneumoniae, S. pneumoniae HAV#356, Clinical
# [51] = Streptococcus pneumoniae, S. pneumoniae HAV#358, Clinical
smiles,measurement,setting,value
CC[C@H]1OC(=O)[C@H](C)[C@@H](O[C@H]2C[C@@](C)(OC)[C@@H](O)[C@H](C)O2)[C@H](C)[C@@H](O[C@@H]2O[C@H](C)C[C@H](N(C)C)[C@H]2O)[C@](C)(O)C[C@@H](C)CN(C)[C@H](C)[C@@H](O)[C@]1(C)O [Azithromycin],MIC,[1]; [2],4 µg/mL
same,MIC,[1]; [3],> 128 µg/mL
same,MIC,[1]; [4],> 128 µg/mL
same,MIC,[1]; [5],> 128 µg/mL
same,MIC,[1]; [6],> 128 µg/mL
same,MIC,[1]; [7],> 256 µg/mL
same,MIC,[1]; [8],4 µg/mL
same,MIC,[1]; [9],> 64 µg/mL
same,MIC,[1]; [10],> 128 µg/mL
same,MIC,[1]; [11],8 µg/mL
same,MIC,[1]; [12],> 128 µg/mL
same,MIC,[1]; [13],> 128 µg/mL
same,MIC,[1]; [14],> 128 µg/mL
same,MIC,[1]; [15],> 128 µg/mL
same,MIC,"[1]; Enterococcus faecium, VRE, E. faecium HAV#318, VanA",> 64 µg/mL
same,MIC,[1]; [16],> 128 µg/mL
same,MIC,[1]; [17],64 µg/mL
same,MIC,[1]; [18],8 µg/mL
same,MIC,[1]; [19],4 µg/mL
same,MIC,[1]; [20],8 µg/mL
same,MIC,[1]; [21],8 µg/mL
same,MIC,[1]; [22],8 µg/mL
same,MIC,[1]; [23],4 µg/mL
same,MIC,[1]; [24],2 µg/mL
same,MIC,[1]; [25],> 64 µg/mL
same,MIC,[1]; [26],8 µg/mL
same,MIC,[1]; [27],8 µg/mL
same,MIC,"[1]; Staphylococcus aureus, MRSA, S. aureus HAV#017, MRSA Col(Colindale, England)",1 µg/mL
same,MIC,[1]; [28],> 64 µg/mL
same,MIC,[1]; [29],> 64 µg/mL
same,MIC,[1]; [30],> 64 µg/mL
same,MIC,[1]; [31],2 µg/mL
same,MIC,[1]; [32],2 µg/mL
same,MIC,[1]; [33],2 µg/mL
same,MIC,[1]; [34],> 256 µg/mL
same,MIC,"[1]; Staphylococcus aureus, S. aureus HAV#211, Clinical",> 64 µg/mL
same,MIC,[1]; [35],1 µg/mL
same,MIC,[1]; [36],0.25 µg/mL
same,MIC,[1]; [37],0.25 µg/mL
same,MIC,[1]; [38],0.25 µg/mL
same,MIC,"[1]; Staphylococcus aureus, S. aureus HAV#216, Clinical, cfr",> 128 µg/mL
same,MIC,[1]; [39],> 128 µg/mL
same,MIC,[1]; [40],> 64 µg/mL
same,MIC,[1]; [41],32 µg/mL
same,MIC,[1]; [42],> 64 µg/mL
same,MIC,[1]; [43],> 64 µg/mL
same,MIC,[1]; [44],> 64 µg/mL
same,MIC,[1]; [45],> 64 µg/mL
same,MIC,[1]; [46],> 256 µg/mL
same,MIC,[1]; [47],> 64 µg/mL
same,MIC,[1]; [48],2 µg/mL
same,MIC,[1]; [49],1 µg/mL
same,MIC,[1]; [50],> 64 µg/mL
same,MIC,[1]; [51],2 µg/mL
same,MIC,E. faecium Line R & VRE,8 µg/mL
same,MIC,A. baumannii ATCC 19606,64 µg/mL
C[C@H]1COc2c(N3CCN(C)CC3)c(F)cc3c(=O)c(C(=O)O)cn1c23 [Levofloxacin],MIC,"[1]; Acinetobacter baumannii, A. baumannii HAV#651, Clinical",0.125 µg/mL
same,MIC,"[1]; Acinetobacter baumannii, A. baumannii HAV#652 Clinical",1 µg/mL
same,MIC,"[1]; Acinetobacter baumannii, A. baumannii HAV#653, Clinical",0.25 µg/mL
same,MIC,"[1]; Acinetobacter baumannii, A. baumannii HAV#654, Clinical",0.125 µg/mL
same,MIC,"[1]; Acinetobacter baumannii, A. baumannii HAV#655, Clinical",0.5 µg/mL
same,MIC,"[1]; Acinetobacter baumannii, A. baumannii HAV#656, Clinical",32 µg/mL
same,MIC,"[1]; Acinetobacter baumannii, A. baumannii HAV#657, Clinical",0.5 µg/mL
same,MIC,"[1]; Acinetobacter baumannii, A. baumannii HAV#658, Clinical",0.25 µg/mL
same,MIC,"[1]; Acinetobacter baumannii, A. baumannii HAV#659, Clinical",16 µg/mL
same,MIC,"[1]; Acinetobacter baumannii, A. baumannii HAV#660, Clinical",64 µg/mL
same,MIC,"[1]; Acinetobacter baumannii, A. baumannii HAV#661, Clinical",0.125 µg/mL
same,MIC,"[1]; Acinetobacter baumannii, A. baumannii HAV#662, Clinical",8 µg/mL
same,MIC,"[1]; Acinetobacter baumannii, A. baumannii HAV#663, Clinical",0.25 µg/mL
same,MIC,"[1]; Acinetobacter baumannii, A. baumannii HAV#664, Carbapenem R",64 µg/mL
same,MIC,[1]; [2],1 µg/mL
same,MIC,[1]; [3],64 µg/mL
same,MIC,[1]; [4],64 µg/mL
same,MIC,[1]; [5],32 µg/mL
same,MIC,[1]; [6],8 µg/mL
same,MIC,[1]; [7],64 µg/mL
same,MIC,[1]; [8],8 µg/mL
same,MIC,[1]; [9],2 µg/mL
same,MIC,[1]; [10],128 µg/mL
same,MIC,[1]; [11],2 µg/mL
same,MIC,[1]; [12],> 128 µg/mL
same,MIC,[1]; [13],4 µg/mL
same,MIC,[1]; [14],128 µg/mL
same,MIC,[1]; [15],128 µg/mL
same,MIC,"[1]; Enterococcus faecium, VRE, E. faecium HAV#319, Line R & Vanco R",128 µg/mL
same,MIC,[1]; [16],4 µg/mL
same,MIC,[1]; [17],32 µg/mL
same,MIC,[1]; [18],64 µg/mL
same,MIC,[1]; [19],4 µg/mL
same,MIC,[1]; [20],< 0.06 µg/mL
same,MIC,[1]; [21],2 µg/mL
same,MIC,[1]; [22],< 0.06 µg/mL
same,MIC,[1]; [23],16 µg/mL
same,MIC,[1]; [24],0.03 µg/mL
same,MIC,[1]; [25],64 µg/mL
same,MIC,[1]; [26],1 µg/mL
same,MIC,[1]; [27],1 µg/mL
same,MIC,"[1]; Klebsiella pneumoniae, K. pneumoniae HAV#406, Clinical",0.125 µg/mL
same,MIC,"[1]; Klebsiella pneumoniae, K. pneumoniae HAV#407, Clinical",> 128 µg/mL
same,MIC,"[1]; Klebsiella pneumoniae, K. pneumoniae HAV#408, Clinical",1 µg/mL
same,MIC,"[1]; Klebsiella pneumoniae, K. pneumoniae HAV#409, ESBL-producing",0.5 µg/mL
same,MIC,"[1]; Staphylococcus aureus, MRSA, S. aureus HAV#0107, MRSA Col(Colindale, England)",1 µg/mL
same,MIC,[1]; [28],0.25 µg/mL
same,MIC,[1]; [29],64 µg/mL
same,MIC,[1]; [30],0.25 µg/mL
same,MIC,[1]; [31],0.5 µg/mL
same,MIC,[1]; [32],1 µg/mL
same,MIC,[1]; [33],0.5 µg/mL
same,MIC,[1]; [34],32 µg/mL
same,MIC,[1]; [35],0.25 µg/mL
same,MIC,[1]; [36],2 µg/mL
same,MIC,[1]; [37],0.25 µg/mL
same,MIC,[1]; [38],0.25 µg/mL
same,MIC,[1]; [39],2 µg/mL
same,MIC,[1]; [40],8 µg/mL
same,MIC,[1]; [41],16 µg/mL
same,MIC,[1]; [42],128 µg/mL
same,MIC,[1]; [43],> 128 µg/mL
same,MIC,[1]; [44],16 µg/mL
same,MIC,[1]; [45],8 µg/mL
same,MIC,[1]; [46],8 µg/mL
same,MIC,[1]; [47],0.5 µg/mL
same,MIC,[1]; [48],0.25 µg/mL
same,MIC,[1]; [49],0.5 µg/mL
same,MIC,[1]; [50],0.25 µg/mL
same,MIC,[1]; [51],0.25 µg/mL
same,MIC,P. aeruginosa ATCC 27853,2 µg/mL
same,MIC,P. aeruginosa ΔAmex OprM,0.125 µg/mL
same,MIC,A. baumannii ATCC 19606,1 µg/mL
